{
  "source": "patent US20050182020A1",
  "about": "“Ceramide de novo synthesis-based therapeutic and prophylactic methods, and related articles of manufacture” (priority 2003, published 2005)",
  "key": {"[1]": {"system": "SRE-mediated gene transcription", "assay": "SRE-mediated gene transcription, Part II inhibitors of sphingolipid synthesis and DAG generation", "assay_type": "cell-based", "parameters": "SRE-mediated gene transcription inhibited to: unit of the concentration uncertain", "protocol": "Reduction of de novo sphingolipid synthesis: Incubation with methylthiodihydroceramide (10 μM) for 6 h reduces SRE-mediated gene transcription to 40%. Methylthiodihydroceramide was received from Gerhild van Echten-Deckert (1). Reduction of de novo sphingolipid biosynthesis by 1-methylthiodihydroceramide is due to its ability to deplete cells of newly formed free sphinganine.\nInhibition of sphingomyelin synthesis: The D609 compound is a xanthate and inhibitor of sphingomyelin synthase. It is a mixture of several isoforms (2). Experiments were carried out with five defined isomers of D609 received via Gemma Fabrias (Dept. of Biological Organic Chemistry, Barcelona, Spain) (Table 1). […] A concentration curve of 10, 20 and 40 μg/ml was tested over 5 h.\nData: Propanolol ([…]) inhibits SRE-mediated gene transcription to 40% (+3%) within 30 min. Resvaratrol ([…]) inhibits SRE-mediated gene transcription to 7% (±16%) within 4 h."}, "[2]": {"system": "SRE-mediated gene transcription", "assay": "SRE-promoter luciferase reporter gene assay in stably transfected CHO cells", "assay_type": "cell-based, Chinese hamster", "conditions": "for SRE-mediated gene transcription (luciferase RLU/protein): myriocin 1 μM, cycloserine 500 mM, fumonisin B1 10 μM, PPMP 20 μM, NB-DNJ 40 μM, cholesterol/25-OH cholesterol 10/1 μg/ml, vs 1% BSA", "protocol": "FIG. 3. Inhibition of ceramide synthesis and SRE-mediated gene transcription. (A) Decreased ceramide synthesis correlates with decreased levels of SRE-mediated gene transcription and mSREBP. […] After cell lysis, luciferase activity was analyzed, and expressed as a ratio of protein content. Data represent the average (±S.D.) of at least 4 different experiments, each performed in triplicate. […] CHO cells stably transfected with an SRE-promoter construct linked to the luciferase reporter gene were incubated for 8 h in the presence of control conditions (1% BSA) or increasing levels of myriocin (0.25-1 μM). After cell lysis, luciferase activity was analyzed, expressed as a ratio of protein content. Data represent the average (±S.D.) of at least 3 different experiments, each performed in triplicate.\nFIG. 4. Increased ceramide synthesis and SRE-mediated gene transcription. (A) Increased ceramide de novo synthesis correlates with increased SRE-mediated gene transcription. On day 1, CHO cells stably transfected with an SRE-promoter construct linked to the luciferase reporter gene were plated at 80% confluency. […] Cells were harvested, lysed and analyzed for luciferase activity (measured in relative light units, RLU) and protein content. Data are expressed as percentage of control and represent the average (±S.D.) of three different experiments, each performed in triplicate. Inset: Western blot analysis: On day 1, CHO cells were plated in regular growth medium. On day 2, cells were incubated for 8 h with control medium (1% BSA) or DMS (5 μM). Whole cell extracts (30 μg protein) were loaded on a 4-14% continuous gradient SDS-PAGE gel. P and M denote the precursor (125 kd) and mature (68 kd) form of SREBP-1 in a representative experiment. (B) DMS increases ceramide de novo synthesis. CHO cells were treated for 3.5 h either with control conditions (1% BSA) or DMS (2.5-5 μM). […] Data are expressed as dpm/protein and represent a typical experiment.\n(§1) FIG. 5. LY-B cells fail to recover SRE-mediated gene transcription in cholesterol depletion but recover SRE-mediated gene transcription in the presence of DMS. […] Both cell lines have been transfected to stably express an SRE-promoter construct linked to the luciferase reporter gene. On day 2, cells were incubated for 16 h with 1% BSA (control) or in the presence of cholesterol (10 μg/ml) and 25-OH cholesterol (1 μg/ml) to decrease SRE-mediated gene transcription. Then, incubation medium was switched to 1% BSA or DMS (5 μM) for 6 h. After cell lysis, luciferase activity was analyzed, expressed as a ratio of protein content. Data represent the average (±S.D.) of at least 4 different experiments, each performed in triplicate.\nCell culture and stable transfections: Cells were grown in F12-nutrient mixture medium containing 10% fetal bovine serum (FBS), 1% glutamine (v/v), 1% penicillin/streptomycin (v/v), and 10% fetal bovine serum (v/v) at 37° C. in humidified CO2 (5%). To obtain stable transfectants, cells were plated in 12-well plates at 50% confluency and transfected for 5 h in the presence of serum-free Dulbecco's modified Eagle's medium (DMEM) with pSyn SRE (1 μg/well) and pWLNeo (0.25 μg/well) using Lipofectamin (1.5 μl/well). Cells were then incubated for 2 days in growth medium. On day three, neomycin-containing medium (400 μg/ml) was added. Selection for neomycin resistant colonies was continued for three weeks. Pooled clones were analyzed for luciferase expression. Experiments were performed with pooled clones as well as with cells derived from a single clone. Cells were grown in the presence of 400 μg/ml neomycin. For experimental use, cells were plated in the absence of neomycin at least 24 h ahead in regular growth medium.\nEnzyme assays: Cells to be analyzed for luciferase activity were lyzed in lysis buffer A containing 0.1% Triton X-100, 50 mM Hepes, 10 mM MgSO4, pH 7.7. Cells were scraped, collected, vortexed and briefly centrifuged to pellet cell debris. […]"}, "[3]": {"system": "Niemann Pick Disease Type A fibroblasts", "assay": "Ceramide de novo synthesis (3H-serine) in NPA fibroblasts", "assay_type": "cell-based", "conditions": "overnight incubation with agent, vs 1% BSA", "protocol": "FIG. 19. Ceramide synthesis is increased in NPA fibroblasts. Fibroblasts from different control individuals and from two different cell lines derived from Niemann Pick Disease Type A were incubated for 4 h in the presence of ^3H-serine to measure de novo ceramide synthesis after having been incubated overnight in either control medium (1% BSA) or in the presence of cholesterol or C8-Ceramide. Lipid extraction and separation were carried out."}, "HMG-CoA synthase mRNA": {"system": "HMG-CoA synthase mRNA", "conditions": "previously shown (ref. 10); cited from earlier work"}, "SREBP-1": {"system": "SREBP-1", "assay": "Western blot analysis of precursor and mature SREBP-1 in CHO cells", "assay_type": "cell-based, Chinese hamster", "conditions": "C6-ceramide 20 μM, 4 h and 8 h, vs controls", "protocol": "FIG. 2. C6-ceramide increases pSREBP levels. On day 1, CHO cells were plated in regular growth medium. On day 2, cells were incubated for 4 and 8 h with 1% BSA (control) or in the presence of C6-ceramide (20 μM). Whole cell extracts (30 μg protein) were loaded on a 4-14% continuous gradient SDS-PAGE gel. P denotes the precursor (125 kd) form of SREBP-1 in a representative experiment. C6 ceramide increases the precursor form of SREBP-1 and decreases the mature form of SREBP-1. […] The blot is representative of experiments carried out with ceramide analogues of different chain length. Densitometric results were obtained by analyzing pixels/inch (corrected for actin) and expressed relative to control.\nFIG. 4. Increased ceramide synthesis and SRE-mediated gene transcription. (A) Increased ceramide de novo synthesis correlates with increased SRE-mediated gene transcription. […] Cells were harvested, lysed and analyzed for luciferase activity (measured in relative light units, RLU) and protein content. Data are expressed as percentage of control and represent the average (±S.D.) of three different experiments, each performed in triplicate. […] Data are expressed as dpm/protein and represent a typical experiment.\nWestern blot analysis: Cells were plated on day one in regular growth medium. […] Densitometric quantification was carried out using Scion Image beta 4.02 software (www.scioncorp.com). […]"}, "HSN1 cells (4561)": {"system": "HSN1 cells (4561)", "assay": "Cholesterol / cholesterylester synthesis from 3H-mevalonate in HSN1 cells", "assay_type": "cell-based, human", "conditions": "16 h, 3H-mevalonate", "protocol": "FIG. 12. Increased free cholesterol synthesis in HSN cells. In order to investigate whether increased SRE-mediated gene transcription also results in increased cholesterol synthesis cells were incubated with radioactive mevalonate, a precursor which represents a committed step in cholesterol synthesis (see FIG. 11). Control and HSN1 cells were incubated for 7 h and 18 h in the presence of trace amounts of ^3H-mevalonate. Lipids were extracted and separated by thin […] chromatography (TLC). Radioactive counts in the cholesterol fraction were analyzed by liquid scintillation counting.\nFIG. 14. Oleic acid increases HSN 4561 synthesis of high levels of free cholesterol but not cholesteryl ester. Cells were incubated for 4 h with ^3H-mevalonate and grown in the presence or absence of 0.3 mM oleic acid.\nFIG. 16. Incubation with mevastatin decreases free cholesterol synthesis in HSN cells as well as in controls. Cells were treated for 16 h in the presence of ^3H-mevalonate to assess cholesterol de novo synthesis and several inhibitors of either cholesterol or ceramide synthesis (Mevastatin=Statin), C6 ceramide (previously shown by us to decreased SREBP levels and SRE-mediated gene transcription), cycloserine (inhibitor of serine-palmiltoyl transferase), cholesterol (classical inhibitor of de novo synthesis by negative feedback)."}, "[4]": {"system": "SRE-mediated gene transcription", "assay": "SRE-promoter luciferase reporter gene assay in LY-B cells (CHO cells mutated in LCB1 subunit of serine-palmitoyl transferase)", "assay_type": "cell-based, Chinese hamster", "conditions": "preliminary data", "protocol": "as §1\nEnzyme assays: Cells to be analyzed for luciferase activity were lyzed in lysis buffer A containing 0.1% Triton X-100, 50 mM Hepes, 10 mM MgSO4, pH 7.7. Cells were scraped, collected, vortexed and briefly centrifuged to pellet cell debris. An aliquot was used to measure luciferase activities in a luminometer (Berthold LB 9501, Wallac Inc., Gaithersburg, Md.) with a luciferin reagent from Promega (Madison, Wis.). Luciferase activity in relative light units (RLU) was divided by protein content (mg/ml) for each extract. […]"}},
  "data": [
    {"molecule": "1-methylthiodihydroceramide", "values": [
      {"measurement": "SRE-mediated gene transcription reduced to", "setting": "[1]; 10 μM, 6 h", "value": 40, "unit": "%"}
    ]},
    {"molecule": "CCCCCCCCCCCCCCCC(=O)NC(CN1CCOCC1)C(O)c1ccccc1.Cl", "note": "(racemic) [PPMP, DL-threo-1-Phenyl-2-palmitoylamino-3-morpholino-1-propanol HCL]", "values": [
      {"measurement": "SRE-mediated gene transcription (luciferase RLU/protein)", "setting": "[2]; 8 h", "value": "significantly reduce"}
    ]},
    {"molecule": "CCCCCCCCCCCCC/C=C/[C@@H](O)[C@H](CO)NC(=O)CCCCCCC", "note": "[C8-ceramide, D-erythro N-octanoylsphingosine]", "values": [
      {"measurement": "ceramide de novo synthesis (3H-serine, 4 h)", "setting": "[3]", "value": "significantly decreases"}
    ]},
    {"molecule": "CCCCCCCCCCCCCC(=O)N[C@H](C)[C@@H](O)c1ccccc1", "note": "[D-MAPP, (1S,2R)-D-erythro-2-(N-Myristoylamino)-1-phenyl-1-propanol]", "values": [
      {"measurement": "mRNA levels of HMG-CoA synthase", "setting": "HMG-CoA synthase mRNA", "value": "decrease"}
    ]},
    {"molecule": "CCCCN1C[C@H](O)[C@@H](O)[C@H](O)[C@H]1CO.Cl", "note": "[NB-DNJ, N-Butyldeoxynojirimycin-HCL]", "values": [
      {"measurement": "SRE-mediated gene transcription (luciferase RLU/protein)", "setting": "[2]; 8 h", "value": "does not affect"}
    ]},
    {"molecule": "CC(C)NCC(O)COc1cccc2ccccc12", "note": "(stereo not shown) [Propanolol]", "values": [
      {"measurement": "SRE-mediated gene transcription inhibited to", "setting": "[1]; 250 (unit uncertain), within 30 min", "value": "40% (+3%)"}
    ]},
    {"molecule": "Oc1ccc(C=Cc2cc(O)cc(O)c2)cc1", "note": "[Resvaratrol, resveratrol]", "values": [
      {"measurement": "SRE-mediated gene transcription inhibited to", "setting": "[1]; 300 (unit uncertain), within 4 h", "value": "7% (±16%)"}
    ]},
    {"molecule": "CCCCCCCCCCCCC/C=C/[C@@H](O)[C@@H](N)CO", "note": "[Sphingosine]", "values": [
      {"measurement": "increase of SRE-mediated gene transcription", "setting": "[2]; sphingosine 1.5 μM, 8 h", "value": "up to two-fold"}
    ]},
    {"molecule": "N[C@@H]1CON=C1O", "note": "[cycloserine]", "values": [
      {"measurement": "SRE-mediated gene transcription (luciferase RLU/protein)", "setting": "[2]; 8 h", "value": "significantly reduced"}
    ]},
    {"molecule": "AG10", "values": [
      {"measurement": "Reduction of SRE-mediated gene transcription(40 μg/ml)", "setting": "[1]; 40 μg/ml, 5 h", "value": "52% (±11%)"}
    ]},
    {"molecule": "D-erythro hexanoylsphingosine [C6-ceramide]", "values": [
      {"measurement": "cellular levels of pSREBP", "setting": "SREBP-1", "value": "increased"},
      {"measurement": "levels of mSREBP", "setting": "SREBP-1", "value": "decreased"},
      {"measurement": "sensitivity of cholesterol de novo synthesis in HSN1 cells (4561) relative to control cells", "setting": "HSN1 cells (4561)", "value": "more sensitive"}
    ]},
    {"molecule": "ceramide", "values": [
      {"measurement": "SRE-mediated gene transcription in LYB-cells incubated with ceramide", "setting": "[4]", "value": "did not decrease"},
      {"measurement": "SRE-mediated gene transcription on addition of ceramide", "setting": "[2]; under the experimental conditions of FIG. 3, data not shown", "value": "did not increase"},
      {"measurement": "mRNA levels of HMG-CoA synthase", "setting": "HMG-CoA synthase mRNA", "value": "decrease"}
    ]}
  ]
}
